In publication PMC10814725, “In Vitro Anti-Inflammatory Study of Limonoids Isolated from Chisocheton Plants” (Current Issues in Molecular Biology, 2024):
Like-named read-outs stand apart in the source and are kept apart here.

Tests used:
[1] = tested on: NF-κB activation in HEK-Blue hTLR4 cells; assay: SEAP reporter gene assay, agonist effect on NF-κB activation (without LPS); type: cell-based, human; conditions: 20 µM, compared to LPS (−)-treated cells
Description: (§1) The SEAP Reporter Gene Assay was conducted as previously described. HEK-Blue^TM hTLR4 cells (2 × 10^4 cells/well) were seeded in 96-well plates and were serum-starved for 24 h at 37 °C in a 5% carbon dioxide atmosphere. After incubation, the culture medium was aspirated, and the cells were washed with saline. High-glucose D-MEM supplemented with 0.1% FBS and 1% penicillin-streptomycin was added and treated with or without the 17 limonoids at a concentration of 20 µM for 1 h, followed by LPS addition at a concentration of 10 ng/mL for the LPS-stimulated group. After incubation at 37 °C for 18 h, the supernatants were collected and PNPP in PBS solution (0.8 mM, 100 μL) was added, followed by 4 h of shading at 25 °C. The optical density (OD) of the samples was measured at 405 nm using a microplate reader (BioTek Cytation 5 Cell Imaging Multimode Reader, Agilent Technologies, Santa Clara, CA, USA).

[2] = tested on: TNF-α, IL-6, IL-1β, and MCP-1; assay: ELISA of pro-inflammatory markers overall (TNF-α, IL-6, IL-1β, MCP-1) in LPS-stimulated THP-1 cells; type: cell-based; conditions: Homo sapiens, read-out: Overall IC50 values for the evaluated pro-inflammatory markers
Description: The logarithmic growth phase of THP-1 cells was achieved by seeding in 96-well plates at a density of 5 × 10^4 cells/well and differentiated for 24 h in the presence of PMA (0.5 μM solution in medium). After 24 h of incubation, the culture medium was removed from the 96-well plate and the cells were washed with PBS. Fresh RPMI-1640 medium supplemented with 0.1% FBS and 1% Penicillin–Streptomycin was added to each well and incubated at 37 °C overnight. The cells were pretreated with 17 limonoids at the corresponding concentration for 1 h, followed by the addition of LPS (10 ng/mL) and then incubation at 37 °C for 18 h. Finally, 50 μL of each culture supernatant solution was taken to determine the concentrations of IL-6, MCP-1, and IL-1β using the corresponding commercially available human ELISA kits following the manufacturer’s instructions. The analyte concentration in the supernatant was measured in pg/mL, and the inhibition level was expressed as a fold change compared to the LPS (−) control group. To determine the IC50 value, the dose-response data were normalized to the LPS-stimulated-only group, and the percentage of inhibition was calculated using the following formula: % Inhibition=(Absorbance of LPS+ control−Absorbance of compound treatment with LPS)/(Absorbance of LPS+ control−Absorbance of LPS− control)×100
Furthermore, the % inhibition data were interpolated into linear equations to determine the IC50 values.

[3] = Cell viability by CCK-8, THP-1 cells; type: cell-based; conditions: human, PMA-differentiated THP-1 cells, 10 µM, 18 h
Description: (§2) The viability of HEK-Blue^TM hTLR4, […], and THP-1 cells was evaluated using the Dojindo Cell Counting Kit-8 (CCK-8) according to the manufacturer’s instructions. The viability of HEK-Blue^TM hTLR4 and THP-1 cells was assessed under identical conditions to the corresponding assay treatments. HEK-Blue^TM hTLR4 cells (2 × 10^4 cells/well) were seeded in 96-well plates and serum-starved for 24 h at 37 °C in a 5% CO2 atmosphere. After incubation, the culture medium was aspirated, and the cells were washed with saline. High-glucose D-MEM supplemented with 0.1% FBS and 1% penicillin–streptomycin was added and pretreated with or without the 17 limonoids at a concentration of 20 µM for 1 h, followed by LPS addition at a concentration of 10 ng/mL. After 18 h of incubation, a 10% (v/v) CCK-8 solution was added to each well and incubated at 37 °C for 1 h, and cell viability was calculated.
The THP-1 cells at 5 × 10^4 cells/well were differentiated for 24 h in the presence of PMA (0.5 μM solution in medium). After 24 h of incubation, the culture medium was removed from the 96-well plate and the cells were washed with PBS. Fresh RPMI-1640 medium supplemented with 0.1% FBS and 1% penicillin–streptomycin was added to each well and incubated at 37 °C for overnight. The cells were pretreated with 17 limonoids at the corresponding concentration for 1 h followed by the addition of LPS (10 ng/mL) and incubated at 37 °C for 18 h. Furthermore, CCK-8 solution was added to each well with a final concentration was 10% (v/v) and incubated at 37 °C. After 1 h, the absorbance of each well was measured at […] by using a microplate reader (BioTek Cytation 5 Cell Imaging Multimode Reader). Cell viability was calculated using the following formula: % Cell viability=(Absorbance of sample−Absorbance of Background)/(Absorbance of control−Absorbance of Background)×100 where the absorbance of the sample is the absorbance of cells treated by the compound with or without LPS, the absorbance of the control is the absorbance of LPS (−)-treated cells, and the background absorbance is the absorbance of a well containing only the medium. The results were expressed as 100% cell viability.

[4] = Cell viability by CCK-8, HEK-Blue hTLR4 cells; type: cell-based; conditions: human
Description: as §2

[5] = tested on: TLR4-dependent NF-kB activation in HEK-Blue hTLR4 cells; assay: SEAP reporter gene assay, antagonist effect on LPS-stimulated TLR4-dependent NF-κB activation; type: cell-based, human; conditions: 20 µM, LPS 10 ng/mL, 18 h, vs. LPS stimulated-only group
Description: as §1

in vitro = type: cell-based; conditions: mouse
Description: as §2

CC1(C)C(=O)C=CC2(C)C1=C(O)C(=O)C1(C)C2(O)C(O)CC2(C)C(c3ccoc3)CC3OC321 (stereo not shown) [Compound 17, pentandricine G]
Agonist effect on NF-κB activation [1]: weak agonist effect
IC50 [2]: < 20 µM
viability at 18 h, 10 µM ([3]; LPS 10 ng/mL, read-out: Viability Cell (%) THP-1 LPS-Induced (10 ng/mL)): > 99.9%
viability at 18 h, 10 µM ([3]; without LPS, read-out: Viability Cell (%) THP-1 Without LPS): 87.3 ± 4.18%
viability at 18 h, 20 µM ([4]; Viability Cell (%) HEK-Blue hTLR4 LPS-Induced (10 ng/mL)): 64.2 ± 9.05%
viability at 18 h, 20 µM ([4]; Viability Cell (%) HEK-Blue hTLR4 Without LPS): > 99.9%
Inhibition of SEAP release (NF-κB activity inhibition) [5]: significantly inhibited SEAP release
viability at 5 µM (in vitro): 77.5 ± 10.2%
viability at 10 µM (in vitro): 72.2 ± 4.68%
viability at 20 µM (in vitro): 73.1 ± 2.02%
